Source: US7879792B2, “Synthetic peptide inhibitors of thrombin and thrombin activation of protease activated receptors 1 and 4” (The Regents of the University of Michigan, priority 2005, dated 2011)
Read-outs that look alike come from different tables or passages of the source. Where a SMILES comes first, the peptide text is derived from it.

What was measured:
[1] = tested on: normal human citrated plasma; assay: activated partial thromboplastin time (APTT); assay type: biochemical
Procedure: (§1) The influence of the various peptide formulations used in the present invention on established coagulation-based assays was determined. The activated partial thromboplastin time (APTT) is performed by mixing 0.05 ml normal human citrated plasma with 0.05 ml activated partial thromboplastin reagent purchased from Organon Teknika, Research Triangle Park, NC in the absence or presence of a peptide inhibitor. After incubation for 5 min at 37° C., the mixture is recalcified with 0.05 ml of 30 mM calcium chloride and the time to clot formation is measured in an Amelung KC4A instrument (Sigma Chemical Corp, St. Louis, Mo.) (Hasan et al. Thrombosis and Haemostasis. 82, 1182-1187 (1999)). The prothrombin time (PT) is performed by mixing 0.05 ml normal human citrated plasma with 0.05 ml Simplastin (Organon Teknika, Research Triangle Park, NC) followed by incubation for 3 min at 37° C. in the absence or presence of a peptide inhibitor. At the addition of 0.05 ml of 30 mM calcium chloride, the time to clot formation is measured in an KC4A instrument (Sigma Chemical Corp, St. Louis, Mo.) (Hasan et al. Thrombosis and Haemostasis. 82, 1182-1187 (1999)). The thrombin clotting time (TCT) is performed by adding 0.1 ml normal human citrated plasma in the absence or presence of a peptide inhibitor and 0.05 ml of a α-thrombin solution such that the final concentration of the thrombin in the entire mixture was 1 nM. Upon addition of the thrombin, the time to clot formation is measured in an KC4A instrument (Sigma Chemical Corp, St. Louis, Mo.).

[2] = tested on: γ-thrombin-induced platelet aggregation; assay: γ-thrombin-induced platelet aggregation in human platelet-rich plasma; assay type: cell-based; conditions: for Concentration of Peptide [mM] That Gives 100% Inhibition: 40 nM human gamma thrombin, human platelet-rich plasma; for concentration that abolished γ-thrombin-induced platelet aggregation: 40 nM γ-thrombin
Procedure: Fresh whole blood was collected and mixed with 0.013 M sodium citrate and platelet-rich plasma was prepared according to the method of Meloni et al., J. Biol. Chem. 266, 6786 (1991). Platelet-rich plasma with a normalized platelet count between 2-2.5×10^8 platelets/ml was added to a cuvette of an aggregometer (Chronlog Corp., Havertown, Pa.), standardized using the protocol of Meloni et al., supra. Peptides to be examined were added to the cuvette and the mixture stabilized for a few moments. Once the baseline was stabilized, γ-thrombin (10-70 nM) (Haematologic Technologies, Essex Junction, Vt.) was added to determine the minimal concentration of the agonist necessary to achieve full platelet aggregation. All investigations with peptides were performed using threshold concentrations of γ-thrombin. Aggregation was allowed to proceed for 5 minutes before stopping.
Table III is a tabulation of the library of peptides prepared and their influence on γ-thrombin-induced platelet aggregation in platelet-rich plasma. […] The numbers in the column represent the minimal concentration (mM) of the peptide that blocked 100% γ-thrombin-induced platelet aggregation of platelets in human platelet-rich plasma.
Human platelet samples were stimulated with 40 nM human gamma thrombin in each experiment.

[3] = tested on: normal human citrated plasma; assay: prothrombin time (PT); assay type: biochemical
Procedure: as §1

[4] = tested on: normal human lung fibroblasts (NHLF); assay: α-thrombin-induced calcium mobilization in normal human lung fibroblasts; assay type: cell-based; conditions: 2 nM alpha thrombin
Procedure: The second assay developed to assess peptides from the combinatorial libraries uses inhibition of α-thrombin-induced calcium mobilization in fibroblasts. Normal human lung fibroblasts (NHLF) were purchased from Clonetics, San Diego, Calif., an affiliate of Bio-Wittaker, Walkersville, Md. The cytoplasmic free Ca^2+ concentration ([Ca^2+]i) was measured using the fluorescent Ca^2+ indicator fura-2 (Molecular Probes, Inc., Eugene, Oreg.). Suspension of fibroblasts in Hepes-Tyrode's buffer were loaded with fura-2 by incubation at 37° C. with 2 μM fura-2/acetoxymethyl ester for 45 minutes according to the method of Rasmussen et al., J. Biol. Chem. 268, 14322 (1993). The labeled fibroblasts were separated from excess probe by washing by centrifugation at 1000 rpm (180 xg). Aliquots of the labeled fibroblasts were transferred into a quartz cuvette with a magnetic stirrer, which was then placed in a thermostatically controlled chamber at 37° C. in a fluorescence spectrophotometer (Perkin-Elmer LS50B spectrofluorometer, Chicago, Ill.). Reagents, test peptide, and α-thrombin (0.25-2 nM), were sequentially added directly to the cuvette. The excitation wavelengths varied between 340 and 380 nm. Fluorescence was measured by recording emitted light at 510 nm as reported by Fisher et al., Mol Pharm. 35, 195 (1989). The minimum emission was determined on a solubilized fibroblast sample in the presence of 10 mM EDTA; maximum emission was determined on the same sample with 10 mM Ca^2+ added. The intrafibroblast free Ca^2+ concentration was calculated by the method of Grykiewicz et al., J. Biol. Chem. 260, 3440 (1985). The ratio of the fluorescence readings was calculated as R=340/380 nm and processed according to the equation [Ca^2+]i=KD((R−Rmin)/Rmax−R))(Sf2/Sb2) to determine the intrafibroblast free Ca^2+ concentration. The KD for fura-2 was assumed to be 224 nM. Rmax and Rmin are the maximum and minimum fluorescence ratios measured at the end of the experiment, respectively; Sf2 and Sb2 are the fluorescence values at 380 nm in the absence and presence of saturating [Ca^2+], respectively. The reaction was monitored for 3-5 minutes.

[5] = tested on: normal human citrated plasma; assay: thrombin clotting time (TCT); assay type: biochemical; conditions: 1 nM thrombin
Procedure: as §1

[6] = target: γ-thrombin; assay: inhibition of γ-thrombin hydrolysis of chromogenic substrate; assay type: biochemical, human; conditions: read-out: Ki (μM) + SD, γIIa (2 nM), gamma-thrombin 2 nM, Sar-Pro-Arg-paranitroanilide
[7] = target: human α-thrombin (Homo sapiens, UniProt P00734); assay: inhibition of α-thrombin hydrolysis of chromogenic substrate; assay type: biochemical; conditions: Ki (μM) + SD, αIIa (2 nM), alpha-thrombin 2 nM, Sar-Pro-Arg-paranitroanilide

Structure (SMILES)	peptide concentration with significant prolongation (p<0.05) of the APTT [1]	Concentration of Peptide [mM] That Gives 100% Inhibition [2]	concentration that abolished γ-thrombin-induced platelet aggregation [2]	peptide concentration with significant prolongation (p<0.05) of the PT [3]	inhibition of thrombin-induced calcium mobilization ([4]; 0.005 mM peptide)	inhibition of thrombin-induced calcium mobilization ([4]; 0.02 mM peptide)	peptide concentration with significant prolongation (p<0.05) of the TCT [5]	Ki ([6]; listed as rOicPsF(p-NO2))	Ki [7]	Ki [6]	Ki ([6]; listed as rOicPsF(p-I))
C[C@@H](NC(=O)[C@@H]1CCCN1C(=O)[C@@H]1C[C@@H]2CCCC[C@@H]2N1C(=O)[C@H](N)CCCNC(=N)N)C(=O)N[C@@H](Cc1ccc([N+](=O)[O-])cc1)C(N)=O [rOicPaF(p-NO2), D-Arg-Oic-Pro-D-Ala-Phe(p-NO2)] (HELM PEPTIDE1{[dR].[O=C([C@@H]1C[C@@H]2CCCC[C@@H]2N1[*:1])[*:2]].P.[dA].[O=C([C@H](Cc1ccc([N+](=O)[O-])cc1)N[*:1])[*:2]].[am]}$$$$V2.0; N-terminus assumed)	50 µM	0.033 mM	33 µM	6.25 µM	26%	47%	1.56 µM	87.9 ± 16 µM			
C[C@@H](NC(=O)[C@@H]1CCCN1C(=O)[C@@H]1C[C@@H]2CCCC[C@@H]2N1C(=O)[C@H](N)CCCNC(=N)N)C(=O)N[C@@H](Cc1ccc(Br)cc1)C(N)=O [rOicPaF(p-Br), D-Arg-Oic-Pro-D-Ala-Phe(p-Br)] (HELM PEPTIDE1{[dR].[O=C([C@@H]1C[C@@H]2CCCC[C@@H]2N1[*:1])[*:2]].P.[dA].[O=C([C@H](Cc1ccc(Br)cc1)N[*:1])[*:2]].[am]}$$$$V2.0)	12.5 µM	0.018 mM	18 µM	6.25 µM	35%	84%	0.78 µM		6.4 to 10.6 µM	48.7 ± 7 µM	
C[C@@H](NC(=O)[C@@H]1CCCN1C(=O)[C@@H]1C[C@@H]2CCCC[C@@H]2N1C(=O)[C@H](N)CCCNC(=N)N)C(=O)N[C@@H](Cc1ccc(I)cc1)C(N)=O [rOicPaF(p-I), D-Arg-Oic-Pro-D-Ala-Phe(p-I)] (HELM PEPTIDE1{[dR].[O=C([C@@H]1C[C@@H]2CCCC[C@@H]2N1[*:1])[*:2]].P.[dA].[O=C([C@H](Cc1ccc(I)cc1)N[*:1])[*:2]].[am]}$$$$V2.0; N-terminus assumed)	25 µM	0.023 mM	23 µM	6.25 µM	36%	88%	0.78 µM				59.2 ± 13 µM
